{
  "source": "paper PMC10663516",
  "about": "(Scientific Reports, 2023)",
  "key": {"B-cell malignancies": {"tested_on": "B-cell malignancies", "conditions": "cited from earlier work"}, "SU-DHL-4-epst": {"tested_on": "SU-DHL-4-epst", "experiment": "Cell viability, ATPlite", "type": "cell-based", "conditions": "Homo sapiens, SU-DHL-4-epst (GCB-DLBCL), 72 h", "experimental": "(§1) The potency of TL-895 effects on cell viability was further examined in vitro in a panel of diffuse large B-cell lymphoma (DLBCL) and MCL cell lines, comprising ten germinal B-cell like subtype (GCB)-DLBCL cell lines, six activated B-cell like (ABC)-DLBCL cell lines, and six MCL cell lines (Horizon Discovery Inc, Cambridge MA, USA). Cells were seeded into 384-well plates (500 cells/well) and incubated (37 °C for 24 h) before treatment with varying concentrations of TL-895 for 72 h. ATP levels were analyzed using the ATPlite Luminescence Assay System (Perkin Elmer, UK). Growth inhibition and maximum response were calculated using the Chalice Analyzer (Horizon Discovery Inc)."}, "OCI-Ly18": {"tested_on": "OCI-Ly18", "experiment": "Cell viability, ATPlite", "type": "cell-based", "conditions": "Homo sapiens, OCI-Ly18 (GCB-DLBCL), 72 h", "experimental": "as §1"}, "U-2932": {"tested_on": "U-2932", "experiment": "Cell viability, ATPlite", "type": "cell-based", "conditions": "Homo sapiens, U2932, U-2932 (ABC-DLBCL), 72 h", "experimental": "as §1"}, "REC-1": {"tested_on": "REC-1", "experiment": "Cell viability, ATPlite", "type": "cell-based", "conditions": "Homo sapiens, Rec1, REC-1 (MCL), 72 h", "experimental": "as §1"}, "HU-DHL-1-epst": {"tested_on": "HU-DHL-1-epst", "experiment": "Cell viability, ATPlite", "type": "cell-based", "conditions": "Homo sapiens, HU-DHL-1-epst (GCB-DLBCL), 72 h", "experimental": "as §1"}, "SU-DHL-8-epst": {"tested_on": "SU-DHL-8-epst", "experiment": "Cell viability, ATPlite", "type": "cell-based", "conditions": "Homo sapiens, SU-DHL-8-epst (ABC-DLBCL), 72 h", "experimental": "as §1"}, "HT": {"tested_on": "HT", "experiment": "Cell viability, ATPlite", "type": "cell-based", "conditions": "Homo sapiens; HT (GCB-DLBCL), 72 h; read-out: Max response (GI %)", "experimental": "as §1"}, "SU-DHL-5-epst": {"tested_on": "SU-DHL-5-epst", "experiment": "Cell viability, ATPlite", "type": "cell-based", "conditions": "Homo sapiens; SU-DHL-5-epst (GCB-DLBCL), 72 h; read-out: Max response (GI %)", "experimental": "as §1"}, "Toledo": {"tested_on": "Toledo", "experiment": "Cell viability, ATPlite", "type": "cell-based", "conditions": "Homo sapiens, Toledo (GCB-DLBCL), 72 h", "experimental": "as §1"}, "Mino": {"tested_on": "Mino", "experiment": "Cell viability, ATPlite", "type": "cell-based", "conditions": "Homo sapiens, Mino (MCL), 72 h", "experimental": "as §1"}, "OCI-Ly19": {"tested_on": "OCI-Ly19", "experiment": "Cell viability, ATPlite", "type": "cell-based", "conditions": "Homo sapiens; OCI-Ly19 (GCB-DLBCL), 72 h; read-out: Max response (GI %)", "experimental": "as §1"}, "DOHH-2": {"tested_on": "DOHH-2", "experiment": "Cell viability, ATPlite", "type": "cell-based", "conditions": "Homo sapiens, DOHH-2 (GCB-DLBCL), 72 h", "experimental": "as §1"}, "BTK": {"target": "BTK (Homo sapiens, UniProt Q06187)", "sequence (Q06187 whole entry)": "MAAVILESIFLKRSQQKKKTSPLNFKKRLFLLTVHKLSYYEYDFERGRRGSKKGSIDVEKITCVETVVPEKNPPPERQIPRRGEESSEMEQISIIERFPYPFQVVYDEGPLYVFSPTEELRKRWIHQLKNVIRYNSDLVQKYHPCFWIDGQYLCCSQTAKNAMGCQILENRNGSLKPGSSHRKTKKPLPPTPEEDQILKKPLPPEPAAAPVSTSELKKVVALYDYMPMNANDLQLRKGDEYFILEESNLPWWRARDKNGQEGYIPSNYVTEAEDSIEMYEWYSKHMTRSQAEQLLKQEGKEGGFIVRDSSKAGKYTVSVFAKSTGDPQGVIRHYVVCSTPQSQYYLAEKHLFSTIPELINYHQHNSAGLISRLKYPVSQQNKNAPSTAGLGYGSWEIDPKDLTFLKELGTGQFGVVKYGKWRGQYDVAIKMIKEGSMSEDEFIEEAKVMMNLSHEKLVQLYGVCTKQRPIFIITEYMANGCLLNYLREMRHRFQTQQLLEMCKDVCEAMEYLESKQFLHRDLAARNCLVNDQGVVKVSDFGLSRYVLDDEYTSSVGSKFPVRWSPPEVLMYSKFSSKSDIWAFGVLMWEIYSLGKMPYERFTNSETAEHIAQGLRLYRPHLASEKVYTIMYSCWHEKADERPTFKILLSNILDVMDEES", "experiment": "Off-Chip mobility shift kinase assay (potency)", "type": "biochemical", "parameters": "Purified full-length recombinant BTK (Carna Biosciences #08–080); purchased Carna Biosciences 08–080", "conditions": "75 µM ATP, 90 min, n = 9", "experimental": "Purified full-length recombinant BTK (Carna Biosciences #08–080) was diluted in buffer (see Supplementary Material) to a final concentration of 0.05 ng/µL with 75 µM ATP and 1 µM of the peptide FITC-AHA-[…]-NH2 (Tufts Core Facility, Boston, MA, USA) into microtiter plates. TL-895 (0.038–10,000 nM) was added and the samples were incubated at room temperature for 90 min (min) before the addition of stop buffer containing 10 mM ethylenediamine tetra-acetic acid (EDTA; see Supplementary Material). Samples were read on a Caliper LC3000 (Caliper Life Sciences, Waltham, MA, USA) using an Off-Chip mobility shift assay format to measure percentage conversion of substrate to product, from which half maximal inhibitory concentration (IC50)–response curves were generated.\npotent second-generation BTK inhibitor, for the treatment of B-cell\nSamantha M. Goodstal, Jing Lin, Timothy Crandall, Lindsey Crowley, Andrew T. Bender,\nAlbertina Pereira, Maria Soloviev, John S. Wesolowski, Riham Iadevaia,\nSven-Eric Schelhorn, Edith Ross, Federica Morandi, Jianguo Ma, Anderson Clark\nKinase assay buffer components\n4 mM dithiothreitol (Sigma, D0632)\n100 mM 4-(2-hydroxyethyl)-1-piperazineethanesulfonic acid (HEPES) pH 7.5\n0.227% Coating Reagent #3 (Caliper Life Sciences)\nTL-89 5 lo g c onc ent rati on (M )\nSupplementary Figure S1. Inhibition of recombinant human full-length BTK activity by TL-\n895 and resulting IC50. […]"}, "[1]": {"tested_on": "primary human hepatocytes", "experiment": "Cytotoxicity by ATP content (CellTiter-Glo)", "type": "cell-based", "conditions": "hepatocyte EC50 at 24 h", "procedure": "(§2) HepG2 cells (human hepatocellular carcinoma [epithelial]) and primary human hepatocytes were cultured in DMEM/F-12 medium supplemented with antibiotics, sodium pyruvate, insulin and 10% fetal calf serum. During the testing steps, the medium was replaced by serum-free media containing bovine serum albumin (BSA) and dexamethasone. All the cultures are incubated at 37 °C in a humidified chamber containing 5% CO2. […] HepG2 and primary hepatocytes were cultured in 96-well tissue culture plates either for luminescence (2E4/well in 100 µL) or pre-coated with collagen I (3.5E4/well in 100 µL, respectively).\n(§3) For the cytotoxicity data, the % values relative (%RV) to the vehicle controls were calculated for each dose level. […] The overall EC50s were the averages of the values obtained from each experiment (PRISM® GraphPad™ Software, Boston, MA)."}, "[2]": {"experiment": "Cytotoxicity by ATP content (CellTiter-Glo)", "type": "cell-based, human", "conditions": "primary human hepatocytes, 24 h", "procedure": "as §2, §3"}, "[3]": {"experiment": "Cytotoxicity by ATP content (CellTiter-Glo)", "type": "cell-based, human", "conditions": "human, HepG2 cells", "procedure": "as §2, §3"}, "HepG2 cells": {"tested_on": "HepG2 cells", "experiment": "Cytotoxicity by ATP content (CellTiter-Glo)", "type": "cell-based, human", "conditions": "HepG2 EC50 at 24 and 72 h", "procedure": "as §2, §3"}},
  "data": [
    {"smiles": "C=CC(=O)N1CCC(F)(CNc2ncnc(N)c2-c2ccc(Oc3ccccc3)cc2)CC1", "note": "[TL-895]", "values": [
      {"measurement": "Dose-limiting toxicities", "setting": "B-cell malignancies; doses up to 900 mg/day", "value": "no dose-limiting toxicities were reported"},
      {"measurement": "Maximum tolerated dose", "setting": "B-cell malignancies; doses up to 900 mg/day", "value": "not reached"},
      {"measurement": "Patients with best response of PR or higher", "setting": "B-cell malignancies; monotherapy", "value": "Half of patients"},
      {"measurement": "Patients with treatment-related grade 3–4 adverse events", "setting": "B-cell malignancies; three patients", "value": 17, "unit": "%"},
      {"measurement": "GI50", "setting": "SU-DHL-4-epst", "value": 10.6, "unit": "µM"},
      {"measurement": "IC50", "setting": "SU-DHL-4-epst", "value": 11.9, "unit": "µM"},
      {"measurement": "Emax", "setting": "SU-DHL-4-epst; read-out: Max response (GI %)", "value": 94, "unit": "%"},
      {"measurement": "GI50", "setting": "OCI-Ly18", "value": 18.6, "unit": "µM"},
      {"measurement": "IC50", "setting": "OCI-Ly18", "value": 22.3, "unit": "µM"},
      {"measurement": "Emax", "setting": "OCI-Ly18; read-out: Max response (GI %)", "value": 68, "unit": "%"},
      {"measurement": "GI50", "setting": "U-2932", "value": 1970, "unit": "nM"},
      {"measurement": "IC50", "setting": "U-2932", "value": 6.6, "unit": "µM"},
      {"measurement": "Emax", "setting": "U-2932; read-out: Max response (GI %)", "value": 105, "unit": "%"},
      {"measurement": "GI50", "setting": "REC-1", "value": 4.26, "unit": "µM"},
      {"measurement": "IC50", "setting": "REC-1", "value": 13, "unit": "µM"},
      {"measurement": "Emax", "setting": "REC-1; read-out: Max response (GI %)", "value": 83, "unit": "%"},
      {"measurement": "GI50", "setting": "HU-DHL-1-epst", "value": 20.8, "unit": "µM"},
      {"measurement": "IC50", "setting": "HU-DHL-1-epst", "value": 24.9, "unit": "µM"},
      {"measurement": "Emax", "setting": "HU-DHL-1-epst; read-out: Max response (GI %)", "value": 73, "unit": "%"},
      {"measurement": "GI50", "setting": "SU-DHL-8-epst", "value": 23, "unit": "µM"},
      {"measurement": "IC50", "setting": "SU-DHL-8-epst", "value": 25.7, "unit": "µM"},
      {"measurement": "Emax", "setting": "SU-DHL-8-epst; read-out: Max response (GI %)", "value": 62, "unit": "%"},
      {"measurement": "Emax", "setting": "HT", "value": 17, "unit": "%"},
      {"measurement": "Emax", "setting": "SU-DHL-5-epst", "value": 42, "unit": "%"},
      {"measurement": "GI50", "setting": "Toledo", "value": 3.84, "unit": "µM"},
      {"measurement": "IC50", "setting": "Toledo", "value": 5.18, "unit": "µM"},
      {"measurement": "Emax", "setting": "Toledo; read-out: Max response (GI %)", "value": 195, "unit": "%"},
      {"measurement": "GI50", "setting": "Mino", "value": 5.58, "unit": "µM"},
      {"measurement": "IC50", "setting": "Mino", "value": 14, "unit": "µM"},
      {"measurement": "Emax", "setting": "Mino; read-out: Max response (GI %)", "value": 88, "unit": "%"},
      {"measurement": "Emax", "setting": "OCI-Ly19", "value": 36, "unit": "%"},
      {"measurement": "GI50", "setting": "DOHH-2", "value": 9.39, "unit": "µM"},
      {"measurement": "IC50", "setting": "DOHH-2", "value": 11.4, "unit": "µM"},
      {"measurement": "Emax", "setting": "DOHH-2; read-out: Max response (GI %)", "value": 130, "unit": "%"},
      {"measurement": "IC50", "setting": "BTK", "value": 1.5, "unit": "nM"},
      {"measurement": "Cytotoxicity EC50 in primary human hepatocytes relative to IC50 in primary CLL blasts", "setting": "[1]", "value": 32, "unit": "fold"},
      {"measurement": "EC50 at 24 h", "setting": "[2]", "value": 6.4, "unit": "µM"},
      {"measurement": "EC50 at 24 h", "setting": "[3]; HepG2, 24 h", "value": "> 50", "unit": "µM"},
      {"measurement": "EC50 at 72 h", "setting": "[3]; HepG2, 72 h", "value": "> 50", "unit": "µM"},
      {"measurement": "Cytotoxicity EC50 in HepG2 cells relative to IC50s in sensitive MCL and DLBCL cell lines", "setting": "HepG2 cells", "value": "5–5000 fold"}
    ]}
  ]
}
